Test results reported in patent US8399490B2, “Insecticides” (Syngenta Crop Protection LLC, priority 2007, dated 2013).
Where two headings read alike, the source gives them in different places.

What was measured:
[1] = tested on: Myzus persicae (green peach aphid); experiment: Example B6: Activity against Myzus persicae (mixed population, systemic/feeding activity, curative), pea seedling roots in test solution; details: 144 h, read-out: activity
[2] = tested on: Myzus persicae (green peach aphid); details: foliar, 144 h, read-out: activity
[3] = tested on: Plutella xylostella (diamond back moth); experiment: Example B3: Plutella xylostella (larvicide, feeding/residual contact activity, preventive), artificial diet MTP; type: in vivo; details: 120 h, L2 larvae on artificial diet, 5 days incubation
Procedure: (§1) Plutella xylostella (Diamond Back Moth) (Larvicide, Feeding/Residual Contact Activity, Preventive) 24-well microtiter plate (MTP) with artificial diet is treated with test solutions by pipetting. After drying, the MTP's are infested with larvae (L2) (10-15 per well). After an incubation period of 5 days, samples are checked for larval mortality, antifeedant and growth regulation.

[4] = tested on: Heliothis virescens (tobacco budworm); experiment: Example B2: Activity against Heliothis virescens (ovo-larvicide, feeding/contact activity, curative), eggs on artificial diet; type: in vivo; details: 96 h, 4 days incubation
Procedure: Activity Against Heliothis virescens (Tobacco Budworm) (Ovo-Larvicide, Feeding/Contact Activity, Curative) Eggs (0-24 h old) are placed in 24-well microtiter plate on artificial diet and treated with test solutions by pipetting. After an incubation period of 4 days, samples are checked for egg mortality, larval mortality, and growth regulation.

[5] = tested on: Diabrotica balteata (corn root worm); experiment: Example B4: Diabrotica balteata (larvicide, feeding/residual contact activity, preventive), artificial diet MTP; type: in vivo; details: 120 h, L2 larvae on artificial diet, 5 days incubation
Procedure: as §1, with “Diabrotica balteata (Corn Root Worm)” for “Plutella xylostella (Diamond Back Moth)”, “(6-10” for “(10-15”

[6] = tested on: Spodoptera littoralis (Egyptian cotton leafworm); experiment: Example B1: Activity against Spodoptera littoralis (larvicide, feeding/residual contact activity, preventive), cotton leaf discs; type: in vivo; details: foliar, 72 h, L1 larvae on cotton leaf discs, 3 days after treatment
Description: Activity Against Spodoptera littoralis (Egyptian Cotton Leafworm)
(§2) (Larvicide, Feeding/Residual Contact Activity, Preventive)
The samples are checked for mortality, repellent effect, feeding behaviour, and growth regulation 3 days after treatment. In this test, compounds listed in Table P above show good activity. In particular compounds P.1, P.2, P.3, P.4, P.5, P.6, P.7, P.8, P.9, P.10, P.11, P.12, P.13, P.14, P.15, P.16, P.17, P.18, P.19, P.20, P.21, P.22, P.23, P.24, P.25, P.26, P.27, P.28, P.29, P.30, P.31, P.32, P.33, P.34, P.35, P.36, P.37, P.38, P.39, P.40, P.41, P.42, P.43, P.44, P.46, P.50, P.51, P.52, P.55, P.56, P.57, P.58, P.59, P.60, P61, P.66, P.67, P.68, P.69, P.70, P.71, P.72, P.73, P.74, P.75, P.76, P.77, P.78, P.83, P.84, P.87 and P.88 show an activity of over 80% at a concentration of 400 ppm.

[7] = tested on: Plutella xylostella (diamond back moth); experiment: Example B8: comparison with state of the art, Plutella xylostella (larvicide, feeding/residual contact activity, preventive); type: in vivo
Procedure: Plutella xylostella (Diamond Back Moth)
as §2
24-well microtiter plate (MTP) with artificial diet is treated with test solutions by pipetting. After drying, the MTP's are infested with larvae (L2) (10-15 per well). After an incubation period of 5 days, samples are checked for larval mortality, antifeedant and growth regulation.

[8] = tested on: Spodoptera littoralis (Egyptian cotton leafworm); experiment: Example B9: comparison with state of the art, Spodoptera littoralis (larvicide, feeding/residual contact activity, preventive); type: in vivo

Structure (SMILES)	melting point [°C]	pest or weed control at 400 ppm [1] [%]	pest or weed control at 400 ppm [2] [%]	pest or weed control at 400 ppm [3] [%]	pest or weed control at 400 ppm [4] [%]	pest or weed control at 400 ppm [5] [%]	pest or weed control at 400 ppm [6] [%]	further results
Cc1cc2c(c(C(=O)NC(C)C)c1NC(=O)c1cc(OC(F)F)nn1-c1ncccc1Cl)OC(F)(F)O2	203 to 204							
CSCC(C)(C)NC(=O)c1c(NC(=O)c2cc(C(F)(F)F)nn2-c2ncccc2Cl)c(C)cc2c1OC(F)(F)O2	173 to 174							
CNC(=O)c1c(NC(=O)c2cc(C(F)F)nn2-c2ncccc2Cl)c(C)cc2c1OC(C)C2 (stereo not drawn)	205 to 206							
CCNC(=O)c1c(NC(=O)c2cc(Br)nn2-c2ncccc2Cl)ccc2c1OCO2 [P.65]	178 to 179							
Cc1cc2c(c(C(=O)NC(C)C)c1NC(=O)c1cc(C(F)F)nn1-c1ncccc1Cl)OC(C)C2 (stereo not drawn)	140 to 142							
Cc1cc2c(c(C(=O)NC(C)C)c1NC(=O)c1cc(Cl)nn1-c1ncccc1Cl)OC(F)(F)O2 [P.30]		> 80	> 80	> 80	> 80	> 80	> 80	
COc1cc(C(=O)Nc2ccc3c(c2C(=O)NC(C)C)OCO3)n(-c2ncccc2Cl)n1 [P.64]	216 to 217							
CC(C)NC(=O)c1c(NC(=O)c2cc(C(F)F)nn2-c2ncccc2Cl)ccc2c1OC(C)C2 (stereo not drawn) [P.86]	169 to 170							
C[S+]([O-])CC(C)(C)NC(=O)c1c(NC(=O)c2cc(Cl)nn2-c2ncccc2Cl)c(Cl)cc2c1OC(F)(F)O2 (stereo not drawn)	240 to 242							
CNC(=O)c1c(NC(=O)c2cc(OC(F)F)nn2-c2ncccc2Cl)c(C)cc2c1OC(F)(F)O2	236 to 237							
CC(C)(CS(C)(=N)=O)NC(=O)c1c(NC(=O)c2cc(Cl)nn2-c2ncccc2Cl)c(Cl)cc2c1OC(F)(F)O2 (stereo not drawn)	188 to 190							
CC(C)NC(=O)c1c(NC(=O)c2cc(Br)nn2-c2ncccc2Cl)c(Cl)cc2c1OC(F)(F)O2 [P.19]		> 80	> 80	> 80	> 80	> 80	> 80	
CNC(=O)c1c(NC(=O)c2cc(Cl)nn2-c2ncccc2Cl)c(Cl)cc2c1OC(F)(F)O2 [P.22]		> 80	> 80	> 80	> 80	> 80	> 80	
CC(C)NC(=O)c1c(NC(=O)c2cc(C(F)(F)F)nn2-c2ncccc2Cl)c(Cl)cc2c1OC(F)(F)O2 [P.13]				> 80	> 80	> 80	> 80	Death rate (%) after 5 days ([7]; Concentration 12.5 ppm): 100%; Death rate (%) after 5 days ([7]; Concentration 50 ppm): 100%; Death rate (%) after 5 days ([7]; Concentration 200 ppm): 100%; insecticidal action compared with the compound from the state of the art (T91.3) ([7]; on Plutella xylostella, especially at low application rates): substantially better insecticidal action; Death rate (%) after 5 days ([8]; Concentration 12.5 ppm): 100%; Death rate (%) after 5 days ([8]; Concentration 50 ppm): 100%; Death rate (%) after 5 days ([8]; Concentration 200 ppm): 100%; insecticidal action compared with the compound from the state of the art (T91.3) ([8]; on Spodoptera littoralis, especially at low application rates): substantially better insecticidal action
CC(C)(CS(C)(=O)=O)NC(=O)c1c(NC(=O)c2cc(C(F)(F)F)nn2-c2ncccc2Cl)c(Cl)cc2c1OCO2	88 to 90							
CC(C)NC(=O)c1cc2c(c(Cl)c1NC(=O)c1cc(C(F)(F)F)nn1-c1ncccc1Cl)OC(F)(F)O2 [T91.3, reference compound]								Death rate (%) after 5 days ([7]; Concentration 12.5 ppm): 0%; Death rate (%) after 5 days ([7]; Concentration 50 ppm): 80%; Death rate (%) after 5 days ([7]; Concentration 200 ppm): 100%; Death rate (%) after 5 days ([8]; Concentration 12.5 ppm): 0%; Death rate (%) after 5 days ([8]; Concentration 50 ppm): 0%; Death rate (%) after 5 days ([8]; Concentration 200 ppm): 100 (growth) %
CNC(=O)c1c(NC(=O)c2cc(C(F)F)nn2-c2ncccc2Cl)ccc2c1OC(C)C2 (stereo not drawn) [P.85]	211 to 213							
CSCC(C)(C)NC(=O)c1c(NC(=O)c2cc(C(F)(F)F)nn2-c2ncccc2Cl)c(Cl)cc2c1OC(F)(F)O2 [P.16]		> 80	> 80	> 80	> 80	> 80	> 80	
CNC(=O)c1c(NC(=O)c2cc(Br)nn2-c2ncccc2Cl)c(Cl)cc2c1OC(F)(F)O2 [P.18]		> 80	> 80	> 80	> 80	> 80	> 80	
CNC(=O)c1c(NC(=O)c2cc(Br)nn2-c2ncccc2Cl)c(C)cc2c1OC(F)(F)O2 [P.26]		> 80	> 80	> 80	> 80	> 80	> 80	
CSCC(C)(C)NC(=O)c1c(NC(=O)c2cc(Br)nn2-c2ncccc2Cl)c(Cl)cc2c1OC(F)(F)O2 [P.20]		> 80	> 80	> 80	> 80	> 80	> 80	
